# Measured values taken from ChEMBL document CHEMBL1921741, “Triggering of erythrocyte cell membrane scrambling by ursolic acid” (J Nat Prod, 2011).
# The source made the active and inactive calls. No cut-off for these calls is given here.
# Columns and labels:
# Erythrocyte [1] = assay: Induction of eryptosis in human erythrocytes assessed as phospholipid scrambling of the cell membrane at 10 uM after 48 hrs using Annexin V-FITC staining by confocal laser scanning microscopy in absence of Ca2+; assay type: functional, cell-based
# Erythrocyte [2] = assay: Induction of eryptosis in human erythrocytes assessed as increase in cytosolic Ca2+ concentration at >= 5 uM after 48 hrs by fluo-3/AM-fluorescence-based FACS analysis; assay type: functional, cell-based
# Erythrocyte [3] = assay: Induction of eryptosis in human erythrocytes assessed as decrease in intracellular ATP concentration at 10 uM after 48 hrs by luciferase-based luminometry; assay type: functional, cell-based
# Erythrocyte [4] = assay: Induction of eryptosis in human erythrocytes assessed as phospholipid scrambling of the cell membrane at >= 5 uM after 48 hrs using Annexin V-FITC staining by confocal laser scanning microscopy; assay type: functional, cell-based
# Erythrocyte [5] = assay: Induction of eryptosis in human erythrocytes assessed as hemolysis-mediated hemoglobin release at 1 uM after 48 hrs by photometric analysis; assay type: functional, cell-based
# Erythrocyte [6] = assay: Induction of eryptosis in human erythrocytes assessed as cell shrinkage measuring decrease in forward scatter of the cells at 5 uM after 48 hrs by […] FACS analysis; assay type: functional
# Erythrocyte [7] = assay: Induction of eryptosis in human erythrocytes assessed as stimulation of ceramide formation at 10 uM after 48 hrs by FITC-based flow cytometry; assay type: functional, cell-based
# Erythrocyte [8] = assay: Induction of apoptosis in human erythrocytes assessed as scrambling of the cell membrane at 0.5 to 10 uM after 48 hrs using Annexin V-FITC staining by confocal laser scanning microscopy in presence of Ca2+; assay type: functional, cell-based
smiles,measurement,setting,value
C[C@H]1[C@H](C)CC[C@]2(C(=O)O)CC[C@]3(C)C(=CC[C@@H]4[C@@]5(C)CC[C@H](O)C(C)(C)[C@@H]5CC[C@]43C)[C@H]12,Activity,Erythrocyte [1],inactive
same,Activity,Erythrocyte [2],Active
same,Activity,Erythrocyte [3],inactive
same,Activity,Erythrocyte [4],Active
same,Activity,Erythrocyte [5],Active
same,Activity,Erythrocyte [6],Active
same,Activity,Erythrocyte [7],inactive
same,Activity,Erythrocyte [8],Active
